# Assays:
# [1] = tested on: P. aeruginosa ATCC BAA-3107 (SEN) and P. aeruginosa LESB58 (MDR); experiment: microbe, parasite or virus in culture; assay type: cell-based, Pseudomonas aeruginosa; conditions: across three biological replicates
# Outline: (§1)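 Broth microdilution in cation-adjusted Mueller-Hinton Broth 2 (except SCH79797), 11 to 16-step serial dilutions, inoculum 5 × 10^5 cells per mL. Plates shaken at 37 °C for 18 hours, 2 replicates. MIC taken as lowest concentration giving complete growth inhibition, OD600 < 0.05; relative MIC = MICevolved/MICancestor.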
# [2] = tested on: E. coli ATCC 25922 (SEN) and E. coli NCTC13846 (MDR); experiment: Adaptive laboratory evolution (ALE), relative MIC of evolved lines; assay type: cell-based, Escherichia coli
# Outline: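 Ten parallel populations per antibiotic–ancestor pair were evolved in MHB at 37 °C, starting near 50% growth-inhibiting drug. Every 72 h they were passaged into 0.5–2.5× increasing concentrations, keeping the highest-drug well with OD600 > 0.2.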
# [3] = tested on: K. pneumoniae ATCC 10031 (SEN) and K. pneumoniae ATCC 700603 (MDR); experiment: microbe, parasite or virus in culture; assay type: cell-based, Klebsiella pneumoniae; conditions: for MIC: across three biological replicates
# Outline: as §1
# [4] = tested on: E. coli ATCC 25922 (SEN) and E. coli NCTC13846 (MDR); experiment: microbe, parasite or virus in culture; assay type: cell-based, Escherichia coli; conditions: for MIC: across three biological replicates
# Outline: as §1
# [5] = EC-SEN (E. coli ATCC 25922), evolved line 5 vs ancestor
# [6] = EC-SEN (E. coli ATCC 25922), evolved line 6 vs ancestor
# [7] = EC-SEN (E. coli ATCC 25922), evolved line 7 vs ancestor
# [8] = EC-SEN (E. coli ATCC 25922), evolved line 8 vs ancestor
# [9] = EC-SEN (E. coli ATCC 25922), evolved line 9 vs ancestor
# [10] = EC-SEN (E. coli ATCC 25922), evolved line 10 vs ancestor
# [11] = EC-SEN (Escherichia coli ATCC 25922), evolved line 8
# [12] = EC-SEN (Escherichia coli ATCC 25922), evolved line 10
# [13] = Escherichia coli ATCC 25922 (EC-SEN), evolved line 5
# [14] = Escherichia coli ATCC 25922 (EC-SEN), evolved line 6
# [15] = Escherichia coli ATCC 25922 (EC-SEN), evolved line 7
# [16] = Escherichia coli ATCC 25922 (EC-SEN), evolved line 8
# [17] = Escherichia coli ATCC 25922 (EC-SEN), evolved line 9
# [18] = Escherichia coli ATCC 25922 (EC-SEN), evolved line 10
# [19] = Klebsiella pneumoniae ATCC 10031 (KP-SEN), ancestor strain, sheet fig 2a
# [20] = ancestor EC-SEN (Escherichia coli ATCC 25922)
smiles,measurement,setting,value
C[C@@H](O)[C@H]1C(=O)N2C(C(=O)O)=C(S[C@H]3CC[S@@+]([O-])C3)S[C@H]12 [Sulopenem],MIC,[1]; Pseudomonas aeruginosa ATCC BAA-3107 (PA-SEN),16 µg/mL
same,MIC,[1]; Pseudomonas aeruginosa LESB 58 (PA-MDR),>32 µg/mL
same,MIC of evolved line,"[2]; EC-MDR (E. coli NCTC 13846), evolved line 1 of the given antibiotic",16 µg/mL
same,Relative MIC,"[2]; EC-MDR (E. coli NCTC 13846), evolved line 1 vs ancestor",512
same,MIC of evolved line,"[2]; EC-MDR (E. coli NCTC 13846), evolved line 2 of the given antibiotic",0.5 µg/mL
same,Relative MIC,"[2]; EC-MDR (E. coli NCTC 13846), evolved line 2 vs ancestor",16
same,MIC of evolved line,"[2]; EC-MDR (E. coli NCTC 13846), evolved line 3 of the given antibiotic",4 µg/mL
same,Relative MIC,"[2]; EC-MDR (E. coli NCTC 13846), evolved line 3 vs ancestor",128
same,MIC of evolved line,"[2]; EC-MDR (E. coli NCTC 13846), evolved line 4 of the given antibiotic",4 µg/mL
same,Relative MIC,"[2]; EC-MDR (E. coli NCTC 13846), evolved line 4 vs ancestor",128
same,MIC of evolved line,"[2]; EC-MDR (E. coli NCTC 13846), evolved line 5 of the given antibiotic",16 µg/mL
same,Relative MIC,"[2]; EC-MDR (E. coli NCTC 13846), evolved line 5 vs ancestor",512
same,MIC of evolved line,"[2]; EC-MDR (E. coli NCTC 13846), evolved line 7 of the given antibiotic",0.5 µg/mL
same,Relative MIC,"[2]; EC-MDR (E. coli NCTC 13846), evolved line 7 vs ancestor",16
same,MIC of evolved line,"[2]; EC-MDR (E. coli NCTC 13846), evolved line 8 of the given antibiotic",4 µg/mL
same,Relative MIC,"[2]; EC-MDR (E. coli NCTC 13846), evolved line 8 vs ancestor",128
same,MIC of evolved line,"[2]; EC-MDR (E. coli NCTC 13846), evolved line 9 of the given antibiotic",8 µg/mL
same,Relative MIC,"[2]; EC-MDR (E. coli NCTC 13846), evolved line 9 vs ancestor",256
same,MIC of evolved line,"[2]; EC-MDR (E. coli NCTC 13846), evolved line 10 of the given antibiotic",4 µg/mL
same,Relative MIC,"[2]; EC-MDR (E. coli NCTC 13846), evolved line 10 vs ancestor",128
same,Relative MIC (log10),"[2]; EC-MDR (Escherichia coli NCTC 13846), evolved line 4",2.107 log10
same,Relative MIC (log10),"[2]; EC-MDR (Escherichia coli NCTC 13846), evolved line 5",2.709 log10
same,Relative MIC (log10),"[2]; EC-MDR (Escherichia coli NCTC 13846), evolved line 8",2.107 log10
same,Relative MIC (log10),"[2]; EC-MDR (Escherichia coli NCTC 13846), evolved line 9",2.408 log10
same,Relative MIC (log10),"[2]; EC-MDR (Escherichia coli NCTC 13846), evolved line 10",2.107 log10
same,MIC of evolved line,"[2]; EC-SEN (E. coli ATCC 25922), evolved line 5 of the given antibiotic",0.25 µg/mL
same,Relative MIC,[2]; [5],8
same,MIC of evolved line,"[2]; EC-SEN (E. coli ATCC 25922), evolved line 6 of the given antibiotic",0.25 µg/mL
same,Relative MIC,[2]; [6],8
same,MIC of evolved line,"[2]; EC-SEN (E. coli ATCC 25922), evolved line 7 of the given antibiotic",0.25 µg/mL
same,Relative MIC,[2]; [7],8
same,MIC of evolved line,"[2]; EC-SEN (E. coli ATCC 25922), evolved line 8 of the given antibiotic",0.25 µg/mL
same,Relative MIC,[2]; [8],8
same,MIC of evolved line,"[2]; EC-SEN (E. coli ATCC 25922), evolved line 9 of the given antibiotic",0.125 µg/mL
same,Relative MIC,[2]; [9],4
same,MIC of evolved line,"[2]; EC-SEN (E. coli ATCC 25922), evolved line 10 of the given antibiotic",0.125 µg/mL
same,Relative MIC,[2]; [10],4
same,Relative MIC (log10),"[2]; EC-SEN (Escherichia coli ATCC 25922), evolved line 6",0.9031 log10
same,Relative MIC (log10),"[2]; EC-SEN (Escherichia coli ATCC 25922), evolved line 7",0.9031 log10
same,Relative MIC (log10),[2]; [11],0.9031 log10
same,Relative MIC (log10),"[2]; EC-SEN (Escherichia coli ATCC 25922), evolved line 9",0.6021 log10
same,Relative MIC (log10),[2]; [12],0.6021 log10
same,Relative MIC,[2]; [13],8
same,Relative MIC,[2]; [14],8
same,Relative MIC,[2]; [15],8
same,Relative MIC,[2]; [16],8
same,Relative MIC,[2]; [17],4
same,Relative MIC,[2]; [18],4
same,Relative MIC,"[2]; Escherichia coli NCTC 13846 (EC-MDR), evolved line 1",512
same,Relative MIC,"[2]; Escherichia coli NCTC 13846 (EC-MDR), evolved line 2",16
same,Relative MIC,"[2]; Escherichia coli NCTC 13846 (EC-MDR), evolved line 3",128
same,Relative MIC,"[2]; Escherichia coli NCTC 13846 (EC-MDR), evolved line 4",128
same,Relative MIC,"[2]; Escherichia coli NCTC 13846 (EC-MDR), evolved line 5",512
same,Relative MIC,"[2]; Escherichia coli NCTC 13846 (EC-MDR), evolved line 7",16
same,Relative MIC,"[2]; Escherichia coli NCTC 13846 (EC-MDR), evolved line 8",128
same,Relative MIC,"[2]; Escherichia coli NCTC 13846 (EC-MDR), evolved line 9",256
same,Relative MIC,"[2]; Escherichia coli NCTC 13846 (EC-MDR), evolved line 10",128
same,MIC of ancestor,[3]; [19],0.0312 µg/mL
same,MIC,[3]; Klebsiella pneumoniae ATCC 10031 (KP-SEN),0.03125 µg/mL
same,MIC of ancestor,"[3]; Klebsiella pneumoniae ATCC 700603 (KP-MDR), ancestor strain, sheet fig 2a",0.5 µg/mL
same,MIC,[3]; Klebsiella pneumoniae ATCC 700603 (KP-MDR),0.5 µg/mL
same,MIC of ancestor,[3]; ancestor KP-MDR (Klebsiella pneumoniae ATCC 700603),0.5 µg/mL
same,MIC of ancestor,[3]; ancestor KP-SEN (Klebsiella pneumoniae ATCC 10031),0.0312 µg/mL
same,MIC of ancestor,"[4]; E. coli NCTC 13846 (EC-MDR), ancestor strain, sheet fig 2a",0.0312 µg/mL
same,MIC,[4]; Escherichia coli ATCC 25922 (EC-SEN),0.0625 µg/mL
same,MIC,[4]; Escherichia coli NCTC 13846 (EC-MDR),0.03125 µg/mL
same,MIC of ancestor,[4]; ancestor EC-MDR (Escherichia coli NCTC 13846),0.0312 µg/mL
same,MIC of ancestor,[4]; [20],0.0312 µg/mL
C[C@@H]1CN2c3c(cc4c(N5C(=O)OC[C@@H]5C)noc4c3F)CC3(C(=O)NC(=O)NC3=O)[C@H]2[C@H](C)O1 [Zoliflodacin],MIC,"[1]; Pseudomonas aeruginosa, ATCCBAA3107, Pseudomonas aeruginosa ATCC BAA-3107 (PA-SEN)",8 µg/mL
same,MIC,"[1]; Pseudomonas aeruginosa, ATCCBAA3107, Pseudomonas aeruginosa LESB 58 (PA-MDR)",> 32 µg/mL
same,Relative MIC,"[2]; EC-SEN (E. coli ATCC 25922), evolved line 1 vs ancestor",64
same,Relative MIC,"[2]; EC-SEN (E. coli ATCC 25922), evolved line 2 vs ancestor",8
same,Relative MIC,"[2]; EC-SEN (E. coli ATCC 25922), evolved line 3 vs ancestor",128
same,Relative MIC,"[2]; EC-SEN (E. coli ATCC 25922), evolved line 4 vs ancestor",128
same,Relative MIC,[2]; [5],256
same,Relative MIC,[2]; [6],32
same,Relative MIC,[2]; [7],64
same,Relative MIC,[2]; [8],128
same,Relative MIC,[2]; [9],64
same,Relative MIC,[2]; [10],128
same,Relative MIC (log10),"[2]; EC-SEN (Escherichia coli ATCC 25922), evolved line 3",2.107 log10
same,Relative MIC (log10),"[2]; EC-SEN (Escherichia coli ATCC 25922), evolved line 4",2.107 log10
same,Relative MIC (log10),"[2]; EC-SEN (Escherichia coli ATCC 25922), evolved line 5",2.408 log10
same,Relative MIC (log10),[2]; [11],2.107 log10
same,Relative MIC (log10),[2]; [12],2.107 log10
same,Relative MIC,"[2]; Escherichia coli ATCC 25922 (EC-SEN), evolved line 1",64
same,Relative MIC,"[2]; Escherichia coli ATCC 25922 (EC-SEN), evolved line 2",8
same,Relative MIC,"[2]; Escherichia coli ATCC 25922 (EC-SEN), evolved line 3",128
same,Relative MIC,"[2]; Escherichia coli ATCC 25922 (EC-SEN), evolved line 4",128
same,Relative MIC,[2]; [13],256
same,Relative MIC,[2]; [14],32
same,Relative MIC,[2]; [15],64
same,Relative MIC,[2]; [16],128
same,Relative MIC,[2]; [17],64
same,Relative MIC,[2]; [18],128
same,MIC of ancestor,"[3]; K. pneumoniae ATCC 10031 (KP-SEN), ancestor strain",0.125 µg/mL
same,MIC of ancestor,[3]; [19],0.125 µg/mL
same,MIC,"[3]; Klebsiella pneumoniae, Klebsiella pneumoniae ATCC 10031 (KP-SEN)",0.125 µg/mL
same,MIC,"[3]; Klebsiella pneumoniae, Klebsiella pneumoniae ATCC 700603 (KP-MDR)",> 32 µg/mL
same,MIC of ancestor,"[4]; Escherichia coli ATCC 25922 (EC-SEN), ancestor strain, sheet fig 2a",2 µg/mL
same,MIC,"[4]; Escherichia coli, Escherichia coli ATCC 25922 (EC-SEN)",2 µg/mL
same,MIC,"[4]; Escherichia coli, Escherichia coli NCTC 13846 (EC-MDR)",16 µg/mL
same,MIC of ancestor,[4]; [20],2 µg/mL
